# Test results from publication PMC3914206.
# Experiments:
# Type in all cases: binding
# [1] = molecular target: T1, panel of 442 kinases (Homo sapiens, UniProt Q9BYT3); details: kinase STK33; compound concentration 10 µM
# T1 construct: purchased KINOMEscan
# Text: (§1) We assessed the selectivity of members of this scaffold using the KINOMEscan methodology across a near comprehensive panel of 442 kinases [[18,27]].
# [2] = molecular target: T2, panel of 442 kinases (Homo sapiens, UniProt Q9HCP0); details: Compound Concentration 10 µM
# T2 construct: purchased KINOMEscan
# Text: as §1
# [3] = molecular target: T3, panel of 442 kinases (Homo sapiens, UniProt P22455); details: Compound Concentration 10 µM
# T3 construct: purchased KINOMEscan
# Text: as §1
# [4] = molecular target: T4, panel of 442 kinases (Homo sapiens, UniProt P49840); details: Compound Concentration 10 µM
# T4 construct: purchased KINOMEscan
# Text: as §1
# T1 sequence (Q9BYT3 whole entry): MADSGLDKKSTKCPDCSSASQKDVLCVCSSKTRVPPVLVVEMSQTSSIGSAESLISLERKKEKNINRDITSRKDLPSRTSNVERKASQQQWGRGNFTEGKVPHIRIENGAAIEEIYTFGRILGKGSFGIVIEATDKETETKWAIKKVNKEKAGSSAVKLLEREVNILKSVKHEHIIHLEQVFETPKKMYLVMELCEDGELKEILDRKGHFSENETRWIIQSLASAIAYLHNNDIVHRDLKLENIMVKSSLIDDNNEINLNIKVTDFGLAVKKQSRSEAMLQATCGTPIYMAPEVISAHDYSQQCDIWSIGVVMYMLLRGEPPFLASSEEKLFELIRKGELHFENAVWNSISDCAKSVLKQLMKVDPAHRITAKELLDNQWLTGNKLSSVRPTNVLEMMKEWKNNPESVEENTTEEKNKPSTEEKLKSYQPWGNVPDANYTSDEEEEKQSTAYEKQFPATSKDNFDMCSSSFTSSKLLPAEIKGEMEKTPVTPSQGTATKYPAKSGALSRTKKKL
# T3 sequence (P22455 22-802): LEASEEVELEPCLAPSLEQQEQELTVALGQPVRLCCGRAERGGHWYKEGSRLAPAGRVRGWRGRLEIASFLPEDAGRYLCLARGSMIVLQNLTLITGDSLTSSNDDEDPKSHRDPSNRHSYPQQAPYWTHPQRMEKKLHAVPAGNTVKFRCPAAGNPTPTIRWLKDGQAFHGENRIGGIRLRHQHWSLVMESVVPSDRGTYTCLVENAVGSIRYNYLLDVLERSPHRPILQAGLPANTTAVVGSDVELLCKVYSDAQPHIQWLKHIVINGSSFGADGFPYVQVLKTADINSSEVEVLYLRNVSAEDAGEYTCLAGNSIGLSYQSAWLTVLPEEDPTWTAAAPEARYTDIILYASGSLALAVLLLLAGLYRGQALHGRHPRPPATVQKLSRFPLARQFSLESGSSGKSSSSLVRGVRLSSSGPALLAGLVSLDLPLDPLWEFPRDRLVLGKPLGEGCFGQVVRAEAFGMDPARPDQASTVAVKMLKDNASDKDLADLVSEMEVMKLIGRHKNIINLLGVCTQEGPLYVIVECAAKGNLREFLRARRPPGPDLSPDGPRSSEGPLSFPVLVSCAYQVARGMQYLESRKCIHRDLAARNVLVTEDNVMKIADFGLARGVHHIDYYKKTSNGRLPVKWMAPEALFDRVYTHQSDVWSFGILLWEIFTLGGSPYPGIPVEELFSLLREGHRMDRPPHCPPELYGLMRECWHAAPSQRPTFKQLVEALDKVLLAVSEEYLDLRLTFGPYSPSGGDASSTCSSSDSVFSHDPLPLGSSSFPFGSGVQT
# T4 sequence (P49840 whole entry): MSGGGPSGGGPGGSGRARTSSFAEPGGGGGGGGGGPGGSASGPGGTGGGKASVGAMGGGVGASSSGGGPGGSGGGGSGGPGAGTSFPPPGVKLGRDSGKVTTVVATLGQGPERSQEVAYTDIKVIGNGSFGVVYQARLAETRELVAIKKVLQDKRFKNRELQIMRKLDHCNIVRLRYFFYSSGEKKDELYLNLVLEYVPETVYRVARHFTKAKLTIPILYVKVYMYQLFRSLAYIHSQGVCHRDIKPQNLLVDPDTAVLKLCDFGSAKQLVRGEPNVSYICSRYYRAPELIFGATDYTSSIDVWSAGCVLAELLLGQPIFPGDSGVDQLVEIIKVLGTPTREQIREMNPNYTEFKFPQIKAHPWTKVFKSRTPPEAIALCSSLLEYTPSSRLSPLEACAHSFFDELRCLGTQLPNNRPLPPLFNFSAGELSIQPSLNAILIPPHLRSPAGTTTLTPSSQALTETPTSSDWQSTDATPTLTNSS
# T2 sequence (Q9HCP0 whole entry): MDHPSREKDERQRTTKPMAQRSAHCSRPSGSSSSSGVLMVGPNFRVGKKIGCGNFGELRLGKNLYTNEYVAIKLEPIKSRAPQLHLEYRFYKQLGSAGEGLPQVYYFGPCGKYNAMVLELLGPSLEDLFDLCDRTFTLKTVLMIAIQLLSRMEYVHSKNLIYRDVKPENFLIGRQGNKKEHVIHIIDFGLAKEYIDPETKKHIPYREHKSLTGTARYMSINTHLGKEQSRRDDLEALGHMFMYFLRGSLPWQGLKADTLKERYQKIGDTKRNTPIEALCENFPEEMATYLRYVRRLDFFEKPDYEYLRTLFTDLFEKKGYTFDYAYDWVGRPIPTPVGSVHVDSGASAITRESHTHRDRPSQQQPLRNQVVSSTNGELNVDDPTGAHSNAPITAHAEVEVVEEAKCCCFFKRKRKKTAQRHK
Structure (SMILES),"% Ctrl, STK33 [1] [% Ctrl]",KINOMEscan: CSNK1G1 [2],KINOMEscan: FGFR4 [3],KINOMEscan: GSK3A [4]
COc1cc(C(=O)N2CCC(N3CCN(C)CC3)CC2)ccc1Nc1ncc2c(n1)N(C)c1ccccc1C(=O)N2C [15 (LRRK2-IN-1)],10,100,28,100
CCOc1cc(C(=O)N2CCC(N3CCN(C)CC3)CC2)ccc1Nc1ncc2c(n1)N(C1CCCC1)c1ccccc1C(=O)N2C [Compound 26],100,98,100,100
COc1cc(C(=O)N2CCC(N3CCN(C)CC3)CC2)ccc1Nc1ncc2c(n1)N1CCc3cccc(c31)C(=O)N2C [Compound 24],–,–,23,–
"COc1cc(C(=O)N2CCC(N3CCN(C)CC3)CC2)ccc1Nc1ncc2c(n1)N(C1CCCC1)c1ccccc1C(=O)N2C [Compound 25, 11-cyclopentyl-2-((2-methoxy-4-(4-(4-methylpiperazin-1-yl)piperidine-1-carbonyl)phenyl)amino)-5-methyl-5H-benzo[e]pyrimido[5,4-b][1,4]diazepin-6(11H)-one]",81,73,75,100
